In PubChem BioAssay AID2060333 (Molecular Pharmacology Branch, DTP, NCI, 2025):

Tested on: 845751-090-R-J2-PDC tumor spheroid viability
Test: Anticancer human tumor 845751-090-R-J2-PDC patient-derived head and neck squamous carcinoma cell line growth inhibition [IpAb]
Conditions: spheroids with HUVEC and MSC; for IC50: curve of first compound; for viability, T/C: stronger effect = lower value; active = viability on the fitted dose curve at most 10% of control; inactive = the rest
Outline: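 Spheroids of 60% malignant cells, 25% HUVEC and 15% MSC were exposed to targeted agents combined with ipatasertib or abemaciclib. Doses started at or near clinical Cmax (10 microM when unknown) and fell in half-log steps.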

[1] = second compound 0.1 µM, first compound 0.0316 µM
[2] = second compound 0.1 µM, first compound 0.1 µM
[3] = second compound 0.1 µM, first compound 0.316 µM
[4] = second compound 0.1 µM, first compound 1 µM
[5] = second compound 0.1 µM, first compound 3.16 µM
[6] = second compound 0.1 µM, first compound 10 µM
[7] = second compound 0.316 µM, first compound 0.0316 µM
[8] = second compound 0.316 µM, first compound 0.1 µM
[9] = second compound 0.316 µM, first compound 0.316 µM
[10] = second compound 0.316 µM, first compound 1 µM
[11] = second compound 0.316 µM, first compound 3.16 µM
[12] = second compound 0.316 µM, first compound 10 µM
[13] = second compound 1 µM, first compound 0.0316 µM
[14] = second compound 1 µM, first compound 0.1 µM
[15] = second compound 1 µM, first compound 0.316 µM
[16] = second compound 1 µM, first compound 1 µM
[17] = second compound 1 µM, first compound 3.16 µM
[18] = second compound 1 µM, first compound 10 µM
[19] = second compound 3.16 µM, first compound 0.0316 µM
[20] = second compound 3.16 µM, first compound 0.1 µM
[21] = second compound 3.16 µM, first compound 0.316 µM
[22] = second compound 3.16 µM, first compound 1 µM
[23] = second compound 3.16 µM, first compound 3.16 µM
[24] = second compound 3.16 µM, first compound 10 µM
[25] = second compound 10 µM, first compound 0.0316 µM
[26] = second compound 10 µM, first compound 0.1 µM
[27] = second compound 10 µM, first compound 0.316 µM
[28] = second compound 10 µM, first compound 1 µM
[29] = second compound 10 µM, first compound 3.16 µM
[30] = second compound 10 µM, first compound 10 µM
[31] = second compound 0.1 µM, first compound 0.00949 µM
[32] = second compound 0.1 µM, first compound 0.03 µM
[33] = second compound 0.1 µM, first compound 0.0949 µM
[34] = second compound 0.1 µM, first compound 0.3 µM
[35] = second compound 0.316 µM, first compound 0.00949 µM
[36] = second compound 0.316 µM, first compound 0.03 µM
[37] = second compound 0.316 µM, first compound 0.0949 µM
[38] = second compound 0.316 µM, first compound 0.3 µM
[39] = second compound 1 µM, first compound 0.00949 µM
[40] = second compound 1 µM, first compound 0.03 µM
[41] = second compound 1 µM, first compound 0.0949 µM
[42] = second compound 1 µM, first compound 0.3 µM
[43] = second compound 3.16 µM, first compound 0.00949 µM
[44] = second compound 3.16 µM, first compound 0.03 µM
[45] = second compound 3.16 µM, first compound 0.0949 µM
[46] = second compound 3.16 µM, first compound 0.3 µM
[47] = second compound 10 µM, first compound 0.00949 µM
[48] = second compound 10 µM, first compound 0.03 µM
[49] = second compound 10 µM, first compound 0.0949 µM
[50] = second compound 10 µM, first compound 0.3 µM
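Also: spheroids exposed to compounds for 7 days before readout.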
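For viability, T/C in this document: CTG3D luminescence normalised so that 100% = DMSO vehicle control.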

C=CC(=O)N1CCN(c2nc(=O)n(-c3c(C)ccnc3C(C)C)c3nc(-c4c(O)cccc4F)c(F)cc23)C(C)C1 (stereo not given) + CC(C)NCC(C(=O)N1CCN(c2ncnc3c2C(C)CC3O)CC1)c1ccc(Cl)cc1
< 31.6 nM: IC50 (second compound 0.1 µM) | IC50 (second compound 0.316 µM) | IC50 (second compound 1 µM) | IC50 (second compound 3.16 µM) | IC50 (second compound 10 µM)
inactive: viability, T/C [1] 47.1% | viability, T/C [2] 46.7% | viability, T/C [3] 28.9% | viability, T/C [4] 36.3% | viability, T/C [5] 22.1% | viability, T/C [6] 10.7% | viability, T/C [7] 28.2% | viability, T/C [8] 30.3% | viability, T/C [9] 21.2% | viability, T/C [10] 24.9% | viability, T/C [11] 21.9% | viability, T/C [12] 13.8% | viability, T/C [13] 22.9% | viability, T/C [14] 25% | viability, T/C [15] 21.5% | viability, T/C [16] 28.2% | viability, T/C [17] 19.3% | viability, T/C [18] 7.88% | viability, T/C [19] 21.7% | viability, T/C [20] 18.3% | viability, T/C [21] 22.9% | viability, T/C [22] 19.7% | viability, T/C [23] 11.9% | viability, T/C [25] 15.2% | viability, T/C [26] 12.3% | viability, T/C [27] 12.2%
active: viability, T/C [24] 5.86% | viability, T/C [28] 12.5% | viability, T/C [29] 8.32% | viability, T/C [30] 3.28%

CC(=O)c1c(C)c2cnc(Nc3ccc(N4CCNCC4)cn3)nc2n(C2CCCC2)c1=O + CC(C)NCC(C(=O)N1CCN(c2ncnc3c2C(C)CC3O)CC1)c1ccc(Cl)cc1
< 0.949 nM: IC50 (second compound 0.316 µM) | IC50 (second compound 1 µM) | IC50 (second compound 3.16 µM) | IC50 (second compound 10 µM)
> 300 nM: IC50 (second compound 0.1 µM)
inactive: viability, T/C (second compound 0.1 µM, first compound 0.000949 µM) 62.6% | viability, T/C (second compound 0.1 µM, first compound 0.003 µM) 64.7% | viability, T/C [31] 51.6% | viability, T/C [32] 53.5% | viability, T/C [33] 71.8% | viability, T/C [34] 68.5% | viability, T/C (second compound 0.316 µM, first compound 0.000949 µM) 39.1% | viability, T/C (second compound 0.316 µM, first compound 0.003 µM) 33.9% | viability, T/C [35] 32.4% | viability, T/C [36] 28.6% | viability, T/C [37] 28.4% | viability, T/C [38] 34.1% | viability, T/C (second compound 1 µM, first compound 0.000949 µM) 26.6% | viability, T/C (second compound 1 µM, first compound 0.003 µM) 29.3% | viability, T/C [39] 24.1% | viability, T/C [40] 34.8% | viability, T/C [41] 37.3% | viability, T/C [42] 22.9% | viability, T/C (second compound 3.16 µM, first compound 0.000949 µM) 29.4% | viability, T/C (second compound 3.16 µM, first compound 0.003 µM) 26.1% | viability, T/C [43] 26.2% | viability, T/C [44] 26.6% | viability, T/C [45] 18% | viability, T/C [46] 21.7% | viability, T/C (second compound 10 µM, first compound 0.000949 µM) 16.4% | viability, T/C (second compound 10 µM, first compound 0.003 µM) 15.8% | viability, T/C [47] 13.7% | viability, T/C [48] 13.8% | viability, T/C [49] 11.3% | viability, T/C [50] 11.5%

CC(C)(C)c1cnc(CSc2cnc(NC(=O)C3CCNCC3)s2)o1 + CC(C)NCC(C(=O)N1CCN(c2ncnc3c2C(C)CC3O)CC1)c1ccc(Cl)cc1
30.1 nM: IC50 (second compound 0.1 µM)
< 9.49 nM: IC50 (second compound 0.316 µM) | IC50 (second compound 1 µM) | IC50 (second compound 3.16 µM) | IC50 (second compound 10 µM)
inactive: viability, T/C [31] 88.9% | viability, T/C [32] 50.1% | viability, T/C [35] 34.4% | viability, T/C [36] 40.4% | viability, T/C [37] 9.45% | viability, T/C [39] 27% | viability, T/C [40] 28.8% | viability, T/C [41] 10.8% | viability, T/C [43] 27.4% | viability, T/C [44] 27.7% | viability, T/C [45] 9.06% | viability, T/C [47] 14.1%
active: viability, T/C [33] 7.88% | viability, T/C [34] 0.63% | viability, T/C (second compound 0.1 µM, first compound 0.949 µM) 0.78% | viability, T/C (second compound 0.1 µM, first compound 3 µM) 0.94% | viability, T/C [38] 0.23% | viability, T/C (second compound 0.316 µM, first compound 0.949 µM) 0.27% | viability, T/C (second compound 0.316 µM, first compound 3 µM) 0.95% | viability, T/C [42] 0.59% | viability, T/C (second compound 1 µM, first compound 0.949 µM) 0.34% | viability, T/C (second compound 1 µM, first compound 3 µM) 0.55% | viability, T/C [46] 0.29% | viability, T/C (second compound 3.16 µM, first compound 0.949 µM) 0.31% | viability, T/C (second compound 3.16 µM, first compound 3 µM) 0.87% | viability, T/C [48] 12.7% | viability, T/C [49] 3.48% | viability, T/C [50] 1.09% | viability, T/C (second compound 10 µM, first compound 0.949 µM) 0.27% | viability, T/C (second compound 10 µM, first compound 3 µM) 1.61%

Cn1nccc1Nc1nccc(-c2ccn(C(CO)c3ccc(Cl)c(F)c3)c(=O)c2)n1 (stereo not given) + CC(C)NCC(C(=O)N1CCN(c2ncnc3c2C(C)CC3O)CC1)c1ccc(Cl)cc1
active: viability, T/C [17] 9.8% | viability, T/C [18] 4.51% | viability, T/C [22] 8.53% | viability, T/C [23] 4.72% | viability, T/C [24] 3.12% | viability, T/C [26] 7.13% | viability, T/C [27] 5.99% | viability, T/C [28] 5.42% | viability, T/C [29] 3.44% | viability, T/C [30] 1.71%
inactive: viability, T/C [1] 65.5% | viability, T/C [2] 66.5% | viability, T/C [3] 57.9% | viability, T/C [4] 41.6% | viability, T/C [5] 44.1% | viability, T/C [6] 35.8% | viability, T/C [7] 45.6% | viability, T/C [8] 40.6% | viability, T/C [9] 24.3% | viability, T/C [10] 14.3% | viability, T/C [11] 16% | viability, T/C [12] 17.1% | viability, T/C [13] 28.2% | viability, T/C [14] 23.2% | viability, T/C [15] 18% | viability, T/C [16] 13.1% | viability, T/C [19] 22.9% | viability, T/C [20] 16.7% | viability, T/C [21] 11.5% | viability, T/C [25] 11.3%
< 31.6 nM: IC50 (second compound 0.316 µM) | IC50 (second compound 1 µM) | IC50 (second compound 3.16 µM) | IC50 (second compound 10 µM)
558 nM: IC50 (second compound 0.1 µM)
